For twelve compounds, IC50 results are on record in patent US20230203060A1 (GENFLEET THERAPEUTICS (SHANGHAI) INC., priority 2020, published 2023).

This experiment deals with A549 cells (KRAS G12S mutant). Description: Cell proliferation inhibition experiment, 3D spheroid, CellTiter-Glo, A549. As to conditions: Homo sapiens, A549, 120 h, A549 (KRAS G12S mutant) 3D spheroid, 5 days with compound, CellTiter-Glo; read-out: A549 IC50. The experiment is classed as cell-based, human. The gist of the method: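 First, H358 (800/well) or A549 (400/well) cells are plated in 2% FBS medium and left overnight to form spheroids. Next, compound is added as a 3.16-fold gradient at 0.1% DMSO for 5 days. Finally, CellTiter-Glo signal is read and IC50 derived by four-parameter fitting.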
Take `C=CC(=O)N1CCN2C(=O)c3c(N4CCN(CCOC)C[C@@H]4C)nc(-c4c(O)cccc4F)c(Cl)c3OC[C@H]2C1` [Z257a, (6aR)-8-acryloyl-4-chloro-3-(2-fluoro-6-hydroxyphenyl)-1-((S)-4-(2-methoxyethyl)-2-methylpiperazin-1-yl)-6,6a,7,8,9,10-hexahydro-12H-pyrazino[2,1-c]pyrido[3,4-f][1,4]oxazepin-12-one]: the IC50 (as a rule, the point on the concentration scale where inhibition reaches its midpoint) amounted to 28.2 µM. Consider `C=CC(=O)N1CCN2C(=O)c3c(N4C[C@H](OC)C[C@@H]4C)nc(-c4c(O)cccc4F)c(Cl)c3OC[C@H]2C1` [Z259a, (6aR)-8-acryloyl-4-chloro-3-(2-fluoro-6-hydroxyphenyl)-1-((2S,4R)-4-methoxy-2-methylpyrrolidin-1-yl)-6,6a,7,8,9,10-hexahydro-12H-pyrazino[2,1-c]pyrido[3,4-f][1,4]oxazepin-12-one], for which the IC50 is 9.12 µM.

With `C=CC(=O)N1CCN2C(=O)c3c(N4C[C@@H](OC)C[C@@H]4C)nc(-c4c(O)cccc4F)c(Cl)c3OC[C@H]2C1` [Z260a, (6aR)-8-acryloyl-4-chloro-3-(2-fluoro-6-hydroxyphenyl)-1-((2S,4S)-4-methoxy-2-methylpyrrolidin-1-yl)-6,6a,7,8,9,10-hexahydro-12H-pyrazino[2,1-c]pyrido[3,4-f][1,4]oxazepin-12-one], the IC50 was more than 30 µM. For `C=CC(=O)N1CCN2C(=O)c3c(N4CC(C#N)CC4(C)C)nc(-c4c(O)cccc4F)c(Cl)c3OC[C@H]2C1` (stereo partly drawn) [Z275, (6aR)-8-acryloyl-1-(4-cyano-2,2-dimethylpyrrolidin-1-yl)-4-chloro-3-(2-fluoro-6-hydroxyphenyl)-6,6a,7,8,9,10-hexahydro-12H-pyrazino[2,1-c]pyrido[3,4-f][1,4]oxazepin-12-one] the value was 7.33 µM. `C=CC(=O)N1CCN2C(=O)c3c(N4CC(C)(C)OC[C@@H]4C)nc(-c4c(O)cccc4F)c(Cl)c3OC[C@H]2C1` [Z276-1, (6aR)-8-acryloyl-4-chloro-3-(2-fluoro-6-hydroxyphenyl)-1-((S)-2,2,5-trimethylmorpholino)-6,6a,7,8,9,10-hexahydro-12H-pyrazino[2,1-c]pyrido[3,4-f][1,4]oxazepin-12-one]: the IC50 is more than 30 µM. The same measure for `C=CC(=O)N1CCN2C(=O)c3c(N4CCC[C@@]4(C)CO)nc(-c4c(O)cccc4F)c(Cl)c3OC[C@H]2C1` [Z279-2]: more than 30 µM; for `C=CC(=O)N1CCN2C(=O)c3c(N4Cc5cn(C)nc5C4C)nc(-c4c(O)cccc4F)c(Cl)c3OC[C@H]2C1` (stereo partly drawn) [Z291-2]: 9.69 µM. On to `C=CC(=O)N1CCN2C(=O)c3c(N4CCN(C)C(=O)[C@@H]4C)nc(-c4c(O)cccc4F)c(Cl)c3OC[C@H]2C1` [Z311-1, (6aR)-8-actyloyl-4-chloro-1-((S)-2,4-dimethyl-3-oxopiperazin-1-yl)-3-(2-fluoro-6-hydroxyphenyl)-6,6a,7,8,9,10-hexahydro-12H-pyrazino[2,1-c]pyrido[3,4-f][1,4]oxazepin-12-one], for which the half-inhibitory concentration (IC50) is more than 30 µM. Turning to `C=CC(=O)N1CCN2C(=O)c3c(N4CCN(C(C)=O)C[C@@H]4C)nc(-c4c(O)cccc4F)c(Cl)c3OC[C@H]2C1` [Z313-1], the IC50 is more than 30 µM. The same measure for `C=CC(=O)N1CCN2C(=O)c3c(N4CCOCC4)nc(-c4nc(N)cc(C)c4C(F)(F)F)c(Cl)c3OC[C@H]2C1` [Z314]: more than 30 µM. The same measure for `C=CC(=O)N1CCN2C(=O)c3c(N4CCN(C(C)=O)C(C)(C)C4)nc(-c4c(O)cccc4F)c(Cl)c3OC[C@H]2C1` [Z315, (6aR)-1-(4-acetyl-3,3-dimethylpiperazin-1-yl)-8-acryloyl-4-chloro-3-(2-fluoro-6-hydroxyphenyl)-6,6a,7,8,9,10-hexahydro-12H-pyrazino[2,1-c]pyrido[3,4-f][1,4]oxazepin-12-one]: more than 30 µM. As for `C=CC(=O)N1CCN2C(=O)c3c(N4CCN(C(=O)CC)C[C@@H]4C)nc(-c4c(O)cccc4F)c(Cl)c3OC[C@H]2C1` [Z316-1, (6aR)-8-acryloyl-4-chloro-3-(2-fluoro-6-hydroxyphenyl)-1-((S)-2-methyl-4-propionylpiperazin-1-yl)-6,6a,7,8,9,10-hexahydro-12H-pyrazino[2,1-c]pyrido[3,4-f][1,4]oxazepin-12-one], the IC50 was more than 30 µM.
